Measurements as given in US10617656B2, “Methods of increasing the cytotoxicity of chemotherapeutic agents with multisubstrate inhibitors of histone, protein-Lys, polyamine acetylation, and polyamine metabolism” (Vanderbilt University, priority 2010, dated 2020).

What was measured:
H358 lung cancer cells [1] = experiment: [3H]-thymidine incorporation (DNA synthesis) assay in H358 cells; format: cell-based
Protocol: (§1) (A) Structures of 1a, and the acetylated side chain of a lysine residue within the polypeptide chain of a protein targeted by the acetylating enzyme (R1 and R2 are the main chain elements on both sides of the lysyl residue). (B) [^3H]-thymidine incorporation into DNA of H358 cells pulsed for 6 hrs at three different time points after the addition of increasing concentrations of 1a, i.e., at 6-12 hrs (12 hr curve), at 18-24 hours (24 hr curve), or at 42-48 hrs (48 hr curve). Incorporation is represented as a percentage relative to control (untreated) cells. (C) Cell cycle analysis of propidium iodide-stained cells harvested at various times after addition of 50 μM 1a. % of cells in G1, S, and G2 represents the average of two independent profiles. (D) Western analysis of histone H3 lysine 9 acetylation, histone H3 lysine 56 acetylation, histone H3 lysine 9 methylation, and total histone H3, before “c” or at the indicated times after addition of 50 μM 1a. Each lane represents 60 μg cellular protein.
(§2) Control cells were left untreated. […] Control cells were left untreated.
Cells were either labeled immediately before treatment (starting DNA synthesis rate), or subjected to the indicated treatments and then pulsed on successive days until day 4. DNA synthesis is represented as the percent of starting DNA synthesis rate. Viability was determined for each treatment condition 24 hours post-start of treatment by the trypan blue exclusion assay, with percentages of viable cells indicated to the right of the graph.
H358 cells (2,000/well) in 96-well plates were treated with 1, 10 or 50 μM of spd-1a, spd-2a, spd-3a, spm3, or spm2 for 12 hours. Triplicate wells of cells were pulsed 6 hours with 0.5 μCi [^3H]-thymidine (NEN, Boston Mass.) post-start of drug treatment, and harvested onto filter paper using a Brandel Harvester and subjected to scintillation counting. Untreated cells were pulsed from 0-6 hrs to establish the initial rate of incorporation.
Cells were plated in 96-well plates (2000 cells per well to insure conditions for exponential growth for untreated cells over the time course of the experiment) and exposed to the following treatments: 1a (50 μM); camptothecin (Sigma, St Louis, Mo. 5 nM, 18 hours); cisplatin (Platinol, obtained through local pharmacies, 2 μM, 1 hour 15 minutes), 5-fluorouracil (5FU, Adrucil™, obtained through local pharmacies, 2 μM, 1 hour 15 minutes), Taxotere (provided by the late Dr. Pierre Potier, 5 nM, 18 hours). UVC treatment (40 J/m^2) using a Stratalinker™, Stratagene, La Jolla, Calif.) was carried using medium lacking phenol red. At 0-6 hr, 18-24 hr (day 1), 42-48 hr […], 66-72 hr (day 3), and 90-96 hr (day 4) post-start of treatment, triplicate wells were incubated with 0.5 μCi [^3H]-thymidine (NEN, Boston Mass.), harvested onto filter paper, and subjected to scintillation counting. Trypan blue exclusion assays for cell membrane integrity were carried out as known in the art.
The present inventors used 96-well viability assays as described in Saadatmandi et al (Cancer Gene Therapy (2002) 9:[…]) to examine the effect of 1a on DNA synthesis in H358 cells, as well as the combined effects of 1a and chemotherapeutic agents. H358 cells were plated in 96-well plates at 3000 cells per well. […]

[2] = test system: histone H3 lysine 9 acetylation in H358 cells; experiment: Western analysis of histone H3 acetylation/methylation in H358 cells; format: cell-based; details: 50 μM, 12 hours
Protocol: as §1
Each lane represents 175 μg cell lysate protein.
One 6 cm culture dish of H358 cells per treatment was used. Cells were treated with 50 μM spm-2, spm-3, or spd-3a for 12 hours. Histones were extracted from cells in 0.2M H2SO4 (as described in Furuta, T., et al (2003) J. Biol. Chem. 278: 20303-20312), followed by SDS-PAGE and Western blotting. Blots were probed with anti-acetyl histone H3-lysine 9 (Upstate Biotechnology, Inc.)
Cells were lysed by adding 1 mL of 0.2 M H2SO4. […]
One 10-cm plate of H358 lung cancer cells (about 2×10^6 cells), grown in DMEM+10% Fetal bovine serum as described in reference, were treated for 24 hours with 50 μM 1a inhibitor. […] Treated cells and untreated (control) cells were harvested by lysing in buffer containing 10 mM Hepes pH 7.5, 100 mM NaCl, 300 mM sucrose, 3 mM MgCl2, 1 mM EDTA, 1 mM DTT, 0.5% Triton X-100, 1 mM PMSF, protease inhibitor pellet (Roche) and analyzed on 10% SDS-PAGE gels, followed by Western immunoblot analysis of total histone H3, methylated histone H3 (methylated on lysine 9), and acetylated histone H3 (acetylated on lysine 9). […]

H358 lung cancer cells [3] = format: cell-based; details: CPT 5 nM 18 hours + 3a
Protocol: as §2
Cells were given fresh inhibitor on the first, second, and third days of treatment and viability was measured on the 4th day (i.e. 3 days post start of treatment). […]
(A) Structure of Spd-3a. (B) Western analysis of histone H3K9-acetylation and total histone H3, measured in control, untreated H358 lung cancer cells “C” or in H358 cells incubated 12 hours in the presence of 50 μM Spd-2a or Spd-3a. Each lane represents 60 μg cellular protein. (C) [3H]-thymidine incorporation (counts per minute) into DNA of H358 cells during a 6 hour pulse beginning at 42 hours post-start of treatment. Treatments were as follows (bars 1-6 left to right): (1) control: no treatment; (2) CPT alone: 5 nM 18 hours; (3) 3a alone: 50 μM; (4-6) 3a+CPT: CPT (5 nm, 18 hours)+3a at indicated dose. After 18 hours, CPT was removed and medium was replaced with fresh medium containing Spd-3a at the indicated dose. Each bar represents the average of triplicates. (D) 3-day 96-well viability assay of H358 cells grown in the presence of increasing amounts of Spd-2a or Spd-3a, with or without CPT (5 nM 18 hours). […] Each data point represents the average of three wells.
Date of exp: Jul. […] Date of exp: Sep.
(§3) Cells were plated in 96-well plates at 2000 cells per well and treated with the indicated doses of spd-3a. Cell viability was measured by the MTS assay 3 days later.
DLD-1 cells or H358 cells were plated in 96-well plates at 2000 cells per well and treated with the indicated doses of (A) spm-3 or (B) spm-2. (C) Cell viability was measured by the MTS assay 3 days later. Similar experiment using GT41 fibroblasts with spm2 or spm 3. Each assay point represents an average of duplicates. […]

[4] = In vivo toxicity in nude mice (tail vein injection); details: 100 μl of 5 mM, approximately 10 mg/kg, twice per week for 3 weeks, 4 mice
Protocol: They injected a second set of 4 mice with 100 μl of spd-3a (5 mM, approximately 10 mg/kg, or about 0.25 mM initial blood concentration), twice per week for 3 weeks.

[5] = 96-well MTS viability assay, GT41F fibroblasts; format: cell-based, human; details: human, GT41F skin fibroblasts, spd-3a 1 μM, single agent, read-out: viability retained
Protocol: as §3
DLD-1 cells or H358 cells were plated in 96-well plates at 2000 cells per well and treated with the indicated doses of (A) spm-3 or (B) spm-2. (C) Cell viability was measured by the MTS assay 3 days later. Similar experiment using GT41 fibroblasts with spm2 or spm 3. Each assay point represents an average of duplicates.

[6] = test system: endogenous HATs associated with solubilized chromatin; details: Parello et al. 1990; cited from earlier work
MCF7 breast cancer cells = details: 72 hr assay; DFMO 100 μM, 5FU 2 μM, doxorubicin 100 nM
Protocol: Viability was measured 3 days after the start of treatment and is expressed as a percentage of control (untreated) cell viability.
Each point is average of triplicates. […]
The present inventors carried out 96-well viability assays as we have previously described (Saadatmandi et al, Cancer Gene Therapy (2002) 9:830-9), in which MCF7 breast cancer cells were plated at 3000 cells per well. After overnight attachment, triplicate wells were treated with increasing doses of inhibitor 1a. Control wells were left untreated. After 3 days, cell viability was measured by the MTS assay, which measures the bioconversion of an uncolored substrate to a colored formazan derivative, and is proportional to cell number.

DLD-1 colon cancer = experiment: Nude mouse subcutaneous DLD-1 tumor model; format: in vivo; details: DFMO only, intratumoral 2 mg/kg
Protocol: Tumors were initiated By subcutaneous implantation of […] DLD-1 colon cancer cells. […] Tumors were measured and volumes calculated as in FIG. 14.
Tumors were initiated by injecting 10^6 DLD-1 cells (from ATCC) per mouse (female nude mouse, 4-5 weeks, Harlan Labs) subcutaneously in the flank. (A) When the average tumor size reached 26 mm^3, animals were randomized into 2 groups (3 per group). One group was left untreated and served as the control (-●-). […] Tumors were measured bidirectionally at 2-3 day intervals and tumor volumes were calculated (v=½ L×w^2). A paired t-test was used to evaluate the significance of the differences between the two groups of animals. […] (B) Tumors were initiated as in part (A). When tumors reached an average size of about 30 mm^3, animals were randomized into three groups of 2 animals each. The control group (-●-) received no treatment. The DFMO group (-▪-) received intratumoral injections of DFMO (2 mg/kg) on days 1, 7, 9 (5 PM), and 2, 8, 10 (9 AM, 5 PM). […] Tumors were measured and volumes calculated as in part (A). A paired t-test was used to evaluate the significance of the difference between the curves.

[7] = test system: MDA MB-435 breast cancer cells; experiment: 72 hr viability assay, MDA MB-435; format: cell-based; details: 72 hr assay; DFMO 100 μM, 5FU 2 μM, doxorubicin 100 nM

SMILES	inhibition of DNA synthesis (H358 lung cancer cells [1]; 1, 10 or 50 μM, 12 hours)	suppression of DNA synthesis in combination with camptothecin (H358 lung cancer cells [1]; CPT 5 nM 18 hours + 3a, pulse at 42 hours)	histone H3K9 acetylation (Western) [2]	histone H3K9 acetylation (Western) ([2]; listed as spd-3a)	suppression of 3-day cell viability in combination with camptothecin (H358 lung cancer cells [3])	signs of toxicity [4]	viability at 3 days, 1 µM [5]	inhibitory effect on endogenous HATs, compared with Spd-2a [6]	effect as single agent on viability (MCF7 breast cancer cells)	difference between control and treated tumor curves (DLD-1 colon cancer)	effect as single agent on viability [7]
CC(=O)NCCSCC(=O)NCCCNCCCCN [3a]	inhibit DNA synthesis	effective	nearly complete ablation	suppress histone acetylation	effective	no signs of distress or illness	~60%	lower inhibitory effect than Spd-2a			
NCCC[C@](N)(C(=O)O)C(F)F [DFMO, α-difluoromethylornithine]									ineffective	not significant	ineffective
